Biological target: T1, human DP2 receptor (Homo sapiens, UniProt Q9Y5Y4)
T1 construct: expressed in transfected cells
T1 sequence (Q9Y5Y4 1-395): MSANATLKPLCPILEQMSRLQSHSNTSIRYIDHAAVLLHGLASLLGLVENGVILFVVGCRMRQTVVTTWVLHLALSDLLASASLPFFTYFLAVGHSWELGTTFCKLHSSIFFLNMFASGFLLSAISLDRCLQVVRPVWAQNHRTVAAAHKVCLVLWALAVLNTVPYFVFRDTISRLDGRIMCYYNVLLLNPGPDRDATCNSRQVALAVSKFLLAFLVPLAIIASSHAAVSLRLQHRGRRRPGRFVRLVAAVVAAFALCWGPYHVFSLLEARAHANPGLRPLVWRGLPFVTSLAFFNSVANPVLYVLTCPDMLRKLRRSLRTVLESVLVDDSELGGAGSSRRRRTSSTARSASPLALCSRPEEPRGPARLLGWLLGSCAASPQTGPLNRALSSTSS
Assay: DP2/CRTH2 radioligand binding assay using [3H]PGD2
Conditions: hDP2 (CRTH2) binding assay, membranes of HEK293 cells expressing recombinant human DP2
Protocol: The ability of a compound to bind to the human DP2 receptor is assessed via a radioligand binding assay using [^3H]PGD2. HEK293 cells stably expressing recombinant human DP2 are resuspended in 10 mM Hepes, 7.4 containing 1 mM DTT, lysed and centrifuged at 75,000×g to pellet the membranes. The membranes are resuspended in 10 mM Hepes, 7.4 containing 1 mM DTT and 10% glycerol to approximately 5 mg protein/ml. Membranes (2-10 μg protein/well) are incubated in 96-well plates with 1 nM [^3H]PGD2 and test compound in Assay Buffer (50 mM Hepes, 10 mM MnCl2, 1 mM EDTA, plus or minus 0.2% human serum albumin, pH 7.4) for 60 minutes at room temperature. The reactions are terminated by rapid filtration through Whatman GF/C glass fibre filter plates. The filter plates were pre-soaked in 0.33% polyethylenimine for 30 minutes at room temperature then washed in Wash Buffer (50 mM Hepes, 0.5 M NaCl pH 7.4) prior to harvesting. After harvesting, the filter plates are washed 3 times with 1 ml cold Wash Buffer then dried. Scintillant is then added to the plates and the radioactivity retained on the filters is determined on a Packard TopCount (Perkin Elmer). Specific binding is determined as total radioactive binding minus non-specific binding in the presence of 10 μM PGD2. IC50s were determined using GraphPad prism analysis of drug titration curves.

Structure (SMILES)	IC50
CCN(Cc1cc(C(F)(F)F)ccc1Oc1cccc(CC(=O)O)c1)S(=O)(=O)c1ccc(Br)cc1 [Compound 1-31, [3-(2-{[(4-Bromo-benzenesulfonyl)-ethyl-amino]-methyl}-4-trifluoromethyl-phenoxy)-phenyl]-acetic acid]	< 300 nM
CCN(Cc1cc(C(F)(F)F)ccc1Oc1cccc(CC(=O)O)c1)S(=O)(=O)c1ccc(Nc2cccc(C)c2)cc1 [Compound 1-32, [3-(2-{[Ethyl-(4-m-tolylamino-benzenesulfonyl)-amino]-methyl}-4-trifluoromethyl-phenoxy)-phenyl]-acetic acid]	< 300 nM
CCN(Cc1cc(C(F)(F)F)ccc1Oc1cccc(CC(=O)O)c1)S(=O)(=O)c1ccc(N(C)c2cccc(C)c2)cc1 [Compound 1-33, {3-[2-({Ethyl-[4-(methyl-m-tolyl-amino)-benzenesulfonyl]-amino}-methyl)-4-trifluoromethyl-phenoxy]-phenyl}-acetic acid]	< 300 nM
CCN(Cc1cc(C(F)(F)F)ccc1Oc1cc(CC(=O)O)ccc1OC)C(C)=O [Compound 1-34, (3-{2-[(Acetyl-ethyl-amino)-methyl]-4-trifluoromethyl-phenoxy}-4-methoxy-phenyl)-acetic acid]	> 300 nM
COc1ccc(CC(=O)O)cc1Oc1ccc(C(F)(F)F)cc1CN(Cc1ccccc1)C(C)=O [Compound 1-35, (3-{2-[(Acetyl-benzyl-amino)-methyl]-4-trifluoromethyl-phenoxy}-4-methoxy-phenyl)-acetic acid]	< 300 nM
CCN(Cc1cc(C(F)(F)F)ccc1Oc1cc(CC(=O)O)ccc1OC)C(=O)OC [Compound 1-36, (3-{2-[(Ethyl-methoxycarbonyl-amino)-methyl]-4-trifluoromethyl-phenoxy}-4-methoxy-phenyl)-acetic acid]	> 300 nM
COC(=O)N(Cc1ccccc1)Cc1cc(C(F)(F)F)ccc1Oc1cc(CC(=O)O)ccc1OC [Compound 1-37, (3-{2-[(Benzyl-methoxycarbonyl-amino)-methyl]-4-trifluoromethyl-phenoxy}-4-methoxy-phenyl)-acetic acid]	< 300 nM
COC(=O)N(Cc1cc(NC(C)=O)ccc1Oc1cccc(CC(=O)O)c1)[C@@H](C)Cc1ccccc1 [Compound 1-38, [3-(4-Acetylamino-2-{[methoxycarbonyl-((S)-1-methyl-2-phenyl-ethyl)-amino]-methyl}-phenoxy)-phenyl]-acetic acid]	< 300 nM
COC(=O)N(Cc1cc(N(C)C(C)=O)ccc1Oc1cccc(CC(=O)O)c1)[C@@H](C)Cc1ccccc1 [Compound 1-39, [3-(4-(Acetyl-methyl-amino)-2-{[methoxycarbonyl-((S)-1-methyl-2-phenyl-ethyl)-amino]-methyl}-phenoxy)-phenyl]-acetic acid]	> 300 nM
COC(=O)N(Cc1cc(N(C)C(C)=O)ccc1Oc1cccc(C(C)C(=O)O)c1)[C@@H](C)Cc1ccccc1 (stereo partly drawn) [Compound 1-40, 2-[3-(4-(Acetyl-methyl-amino)-2-{[methoxycarbonyl-((S)-1-methyl-2-phenyl-ethyl)-amino]-methyl}-phenoxy)-phenyl]-propionic acid]	> 300 nM
COC(=O)N(Cc1cc(NS(C)(=O)=O)ccc1Oc1cccc(CC(=O)O)c1)[C@@H](C)Cc1ccccc1 [Compound 1-41, [3-(4-Methanesulfonylamino-2-{[methoxycarbonyl-((S)-1-methyl-2-phenyl-ethyl)amino]-methyl}-phenoxy)-phenyl]-acetic acid]	< 300 nM
COC(=O)N(Cc1cc(N(C)S(C)(=O)=O)ccc1Oc1cccc(CC(=O)O)c1)[C@@H](C)Cc1ccccc1 [Compound 1-42, [3-(4-(Methanesulfonyl-methyl-amino)-2-{[methoxycarbonyl-((S)-1-methyl-2-phenyl-ethyl)-amino]-methyl}-phenoxy)-phenyl]-acetic acid]	> 300 nM
COC(=O)N(Cc1cc(N(C)S(C)(=O)=O)ccc1Oc1cccc(C(C)C(=O)O)c1)[C@@H](C)Cc1ccccc1 (stereo partly drawn) [Compound 1-43, 2-[3-(4-(Methanesulfonyl-methyl-amino)-2-{[methoxycarbonyl-((S)-1-methyl-2-phenyl-ethyl)-amino]-methyl}-phenoxy)-phenyl]-propionic acid]	> 1000 nM
CCN(Cc1cc(NC(=O)c2ccc(Cl)cc2)ccc1Oc1cc(CC(=O)O)ccc1OC)C(=O)OCc1ccccc1 [Compound 1-44, {3-[2-[(Benzyloxycarbonyl-ethyl-amino)-methyl]-4-(4-chloro-benzoylamino)-phenoxy]-4-methoxy-phenyl}-acetic acid]	< 300 nM
CCN(Cc1cc(NC(=O)C(C)(C)C)ccc1Oc1cc(CC(=O)O)ccc1OC)C(C)=O [Compound 1-45, {3-[2-[(Acetyl-ethyl-amino)-methyl]-4-(2,2-dimethyl-propionylamino)-phenoxy]-4-methoxy-phenyl}-acetic acid]	< 300 nM
CCN(Cc1cc(NC(=O)c2ccc(Cl)cc2)ccc1Oc1cc(CC(=O)O)ccc1OC)C(C)=O [Compound 1-46, {3-[2-[(Acetyl-ethyl-amino)-methyl]-4-(4-chloro-benzoylamino)-phenoxy]-4-methoxy-phenyl}-acetic acid]	< 300 nM
CCN(Cc1cc(NC(=O)C(C)(C)C)ccc1Oc1cc(CC(=O)O)ccc1OC)C(=O)C1CC1 [Compound 1-47, {3-[2-[(Cyclopropanecarbonyl-ethyl-amino)-methyl]-4-(2,2-dimethyl-propionylamino)-phenoxy]-4-methoxy-phenyl}-acetic acid]	< 300 nM
CCN(Cc1cc(NC(=O)c2ccc(Cl)cc2)ccc1Oc1cc(CC(=O)O)ccc1OC)C(=O)C1CC1 [Compound 1-48, (3-{4-(4-Chloro-benzoylamino)-2-[(cyclopropanecarbonyl-ethyl-amino)-methyl]-phenoxy}-4-methoxy-phenyl)-acetic acid]	< 300 nM
O=C(O)CCn1c2c(c3ccccc31)C[C@H](NS(=O)(=O)c1ccc(F)cc1)CC2 [Ramatroban, reference compound]	> 300 nM
